Source: paper PMC8449129, “Single tracer-based protocol for broad-spectrum kinase profiling in live cells with NanoBRET” (STAR Protocols, 2021)

Tests used:
Assay in all cases: cell-based
Design in all cases: NanoBRET live-cell target engagement; % occupancy from displacement of tracer K10 on NanoLuc-kinase fusions, mean n=3
Details in all cases: HEK293, read-out: % inhibition
CDK16 = CDK16 (Homo sapiens, UniProt Q00536)
Summary of the method: (§1)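 Live-cell NanoBRET target engagement: cells expressing kinase–NanoLuc fusion with tracer treated with compound 2 h at 37 °C, 5% CO2. BRET read from donor (450 nm) and acceptor (610/630 nm) emission with 20 μM extracellular NanoLuc inhibitor; % occupancy calculated relative to tracer+DMSO and zero-BRET controls.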

CDK5 = CDK5 (Homo sapiens, UniProt Q00535)
Summary of the method: as §1

CLK4 = CLK4 (Homo sapiens, UniProt Q9HAZ1)
Summary of the method: as §1

MAP3K12 = MAP3K12 (Homo sapiens, UniProt Q12852)
Summary of the method: as §1

MAPK9 = MAPK9 (Homo sapiens, UniProt P45984)
Summary of the method: as §1

MAST3 = MAST3 (Homo sapiens, UniProt O60307)
Summary of the method: as §1

MLTK = biological target: T1, MLTK (Homo sapiens, UniProt Q9NYL2)
T1 construct: gene MAP3K20
Summary of the method: as §1

MYLK3 = MYLK3 (Homo sapiens, UniProt Q32MK0)
Summary of the method: as §1

MYLK4 = MYLK4 (Homo sapiens, UniProt Q86YV6)
Summary of the method: as §1

NEK1 = NEK1 (Homo sapiens, UniProt Q96PY6)
Summary of the method: as §1

PRKACA = PRKACA (Homo sapiens, UniProt P17612)
Summary of the method: as §1

PTK6 = PTK6 (Homo sapiens, UniProt Q13882)
Summary of the method: as §1

RIOK2 = RIOK2 (Homo sapiens, UniProt Q9BVS4)
Summary of the method: as §1

SLK = SLK (Homo sapiens, UniProt Q9H2G2)
Summary of the method: as §1

STK16 = STK16 (Homo sapiens, UniProt O75716)
Summary of the method: as §1

STK36 = STK36 (Homo sapiens, UniProt Q9NRP7)
Summary of the method: as §1

TEK = TEK (Homo sapiens, UniProt Q02763)
Summary of the method: as §1

TLK1 = TLK1 (Homo sapiens, UniProt Q9UKI8)
Summary of the method: as §1

Sequence of NEK1 (Q96PY6 whole entry): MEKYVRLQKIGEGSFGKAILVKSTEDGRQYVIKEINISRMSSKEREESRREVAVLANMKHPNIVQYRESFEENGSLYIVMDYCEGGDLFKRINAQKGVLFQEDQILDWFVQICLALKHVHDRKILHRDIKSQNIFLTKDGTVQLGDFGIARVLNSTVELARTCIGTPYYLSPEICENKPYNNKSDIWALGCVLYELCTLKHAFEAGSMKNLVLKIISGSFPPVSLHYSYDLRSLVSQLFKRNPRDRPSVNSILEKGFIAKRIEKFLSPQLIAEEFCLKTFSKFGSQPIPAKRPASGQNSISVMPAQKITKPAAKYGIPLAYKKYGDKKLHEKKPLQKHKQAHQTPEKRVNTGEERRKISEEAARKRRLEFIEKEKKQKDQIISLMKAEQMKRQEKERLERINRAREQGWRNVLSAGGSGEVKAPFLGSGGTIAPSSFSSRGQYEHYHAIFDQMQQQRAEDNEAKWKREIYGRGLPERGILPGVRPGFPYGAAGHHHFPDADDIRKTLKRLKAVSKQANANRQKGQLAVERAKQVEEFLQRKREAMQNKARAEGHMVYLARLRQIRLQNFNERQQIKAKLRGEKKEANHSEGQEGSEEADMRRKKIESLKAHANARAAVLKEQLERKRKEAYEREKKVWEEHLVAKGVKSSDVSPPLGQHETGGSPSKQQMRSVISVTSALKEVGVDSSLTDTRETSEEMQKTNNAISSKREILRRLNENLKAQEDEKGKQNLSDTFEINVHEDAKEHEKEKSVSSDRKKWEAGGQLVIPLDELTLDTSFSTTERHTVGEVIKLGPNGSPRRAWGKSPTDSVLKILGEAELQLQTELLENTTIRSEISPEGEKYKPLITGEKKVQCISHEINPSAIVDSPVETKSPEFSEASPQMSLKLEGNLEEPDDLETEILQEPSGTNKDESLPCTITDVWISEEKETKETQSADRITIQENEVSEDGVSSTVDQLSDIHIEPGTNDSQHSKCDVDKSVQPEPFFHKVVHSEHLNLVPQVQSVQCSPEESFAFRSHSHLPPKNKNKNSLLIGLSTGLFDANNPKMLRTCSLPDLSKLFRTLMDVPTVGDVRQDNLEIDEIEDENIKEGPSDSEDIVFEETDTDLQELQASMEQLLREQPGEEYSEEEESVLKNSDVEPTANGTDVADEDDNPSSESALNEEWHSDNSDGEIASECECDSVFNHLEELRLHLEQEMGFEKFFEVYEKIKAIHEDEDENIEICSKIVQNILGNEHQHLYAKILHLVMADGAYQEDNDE
Sequence of CLK4 (Q9HAZ1 whole entry): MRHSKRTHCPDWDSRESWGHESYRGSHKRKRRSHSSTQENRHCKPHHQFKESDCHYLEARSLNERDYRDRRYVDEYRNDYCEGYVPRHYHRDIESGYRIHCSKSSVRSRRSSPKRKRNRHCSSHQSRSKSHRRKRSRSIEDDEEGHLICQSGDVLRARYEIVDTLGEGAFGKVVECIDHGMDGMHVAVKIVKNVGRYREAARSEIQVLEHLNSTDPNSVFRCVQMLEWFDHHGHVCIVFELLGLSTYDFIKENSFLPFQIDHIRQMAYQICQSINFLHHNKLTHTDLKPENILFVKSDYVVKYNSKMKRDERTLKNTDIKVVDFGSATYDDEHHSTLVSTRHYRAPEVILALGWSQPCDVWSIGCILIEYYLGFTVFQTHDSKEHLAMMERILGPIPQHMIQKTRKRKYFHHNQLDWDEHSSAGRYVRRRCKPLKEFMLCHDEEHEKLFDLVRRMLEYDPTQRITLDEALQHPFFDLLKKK
Sequence of SLK (Q9H2G2 whole entry): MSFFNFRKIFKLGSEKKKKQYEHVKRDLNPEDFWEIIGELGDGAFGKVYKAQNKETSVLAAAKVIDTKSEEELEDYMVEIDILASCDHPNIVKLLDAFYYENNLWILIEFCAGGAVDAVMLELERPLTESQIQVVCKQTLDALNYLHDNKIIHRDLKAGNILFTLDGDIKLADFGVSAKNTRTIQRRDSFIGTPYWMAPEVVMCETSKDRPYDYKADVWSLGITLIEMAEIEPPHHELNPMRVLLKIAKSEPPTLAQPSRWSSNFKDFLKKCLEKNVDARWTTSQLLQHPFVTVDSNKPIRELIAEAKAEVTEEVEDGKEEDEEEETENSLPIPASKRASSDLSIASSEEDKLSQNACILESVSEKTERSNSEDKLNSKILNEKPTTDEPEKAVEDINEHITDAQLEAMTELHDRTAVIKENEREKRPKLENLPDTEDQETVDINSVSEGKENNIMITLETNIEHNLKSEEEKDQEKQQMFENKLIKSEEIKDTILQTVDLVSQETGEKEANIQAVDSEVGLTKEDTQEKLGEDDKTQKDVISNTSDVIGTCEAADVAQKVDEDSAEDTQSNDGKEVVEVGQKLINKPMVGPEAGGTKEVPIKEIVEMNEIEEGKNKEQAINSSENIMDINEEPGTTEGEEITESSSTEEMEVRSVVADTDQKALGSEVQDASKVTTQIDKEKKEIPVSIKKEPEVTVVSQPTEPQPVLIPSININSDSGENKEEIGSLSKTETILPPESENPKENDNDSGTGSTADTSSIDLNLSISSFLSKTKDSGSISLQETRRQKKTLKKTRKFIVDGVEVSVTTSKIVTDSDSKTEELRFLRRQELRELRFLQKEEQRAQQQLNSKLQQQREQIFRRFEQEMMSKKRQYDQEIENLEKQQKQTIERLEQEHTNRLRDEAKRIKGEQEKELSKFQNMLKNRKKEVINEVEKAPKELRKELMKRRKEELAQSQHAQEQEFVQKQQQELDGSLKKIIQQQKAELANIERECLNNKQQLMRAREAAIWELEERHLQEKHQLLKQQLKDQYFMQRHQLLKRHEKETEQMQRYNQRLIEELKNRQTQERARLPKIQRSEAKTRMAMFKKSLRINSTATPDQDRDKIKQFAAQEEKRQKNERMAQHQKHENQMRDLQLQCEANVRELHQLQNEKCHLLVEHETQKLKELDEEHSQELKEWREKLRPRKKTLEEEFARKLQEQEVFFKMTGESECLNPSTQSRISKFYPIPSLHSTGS
Sequence of TEK (Q02763 whole entry): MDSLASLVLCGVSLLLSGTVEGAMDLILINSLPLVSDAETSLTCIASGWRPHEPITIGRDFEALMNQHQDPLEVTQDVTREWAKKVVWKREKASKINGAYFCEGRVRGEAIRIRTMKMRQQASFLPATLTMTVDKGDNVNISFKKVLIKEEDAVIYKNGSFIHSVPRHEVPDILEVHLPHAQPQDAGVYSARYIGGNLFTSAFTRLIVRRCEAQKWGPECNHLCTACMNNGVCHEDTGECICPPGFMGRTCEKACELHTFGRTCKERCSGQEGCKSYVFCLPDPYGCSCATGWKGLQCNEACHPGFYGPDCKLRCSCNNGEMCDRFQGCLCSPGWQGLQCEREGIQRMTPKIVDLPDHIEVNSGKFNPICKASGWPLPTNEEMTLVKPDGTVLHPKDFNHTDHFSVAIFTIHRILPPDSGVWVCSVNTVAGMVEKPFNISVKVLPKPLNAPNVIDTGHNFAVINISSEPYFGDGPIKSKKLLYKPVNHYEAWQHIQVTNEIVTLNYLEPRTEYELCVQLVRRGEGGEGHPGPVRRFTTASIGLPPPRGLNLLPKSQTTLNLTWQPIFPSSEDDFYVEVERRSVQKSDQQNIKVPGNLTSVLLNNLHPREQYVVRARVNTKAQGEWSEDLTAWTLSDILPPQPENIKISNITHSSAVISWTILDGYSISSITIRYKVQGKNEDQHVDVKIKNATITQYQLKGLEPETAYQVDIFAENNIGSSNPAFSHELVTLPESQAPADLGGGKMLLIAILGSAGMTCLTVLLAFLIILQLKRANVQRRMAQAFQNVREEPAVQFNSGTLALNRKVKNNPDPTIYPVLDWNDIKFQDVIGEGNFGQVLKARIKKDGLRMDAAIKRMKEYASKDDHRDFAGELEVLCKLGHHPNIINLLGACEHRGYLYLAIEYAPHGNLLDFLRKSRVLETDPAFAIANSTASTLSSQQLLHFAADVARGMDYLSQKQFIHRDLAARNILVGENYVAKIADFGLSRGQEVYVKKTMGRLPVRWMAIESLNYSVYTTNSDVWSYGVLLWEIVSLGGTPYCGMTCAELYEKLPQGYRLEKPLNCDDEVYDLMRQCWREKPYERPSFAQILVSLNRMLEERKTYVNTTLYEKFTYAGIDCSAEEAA
Sequence of RIOK2 (Q9BVS4 whole entry): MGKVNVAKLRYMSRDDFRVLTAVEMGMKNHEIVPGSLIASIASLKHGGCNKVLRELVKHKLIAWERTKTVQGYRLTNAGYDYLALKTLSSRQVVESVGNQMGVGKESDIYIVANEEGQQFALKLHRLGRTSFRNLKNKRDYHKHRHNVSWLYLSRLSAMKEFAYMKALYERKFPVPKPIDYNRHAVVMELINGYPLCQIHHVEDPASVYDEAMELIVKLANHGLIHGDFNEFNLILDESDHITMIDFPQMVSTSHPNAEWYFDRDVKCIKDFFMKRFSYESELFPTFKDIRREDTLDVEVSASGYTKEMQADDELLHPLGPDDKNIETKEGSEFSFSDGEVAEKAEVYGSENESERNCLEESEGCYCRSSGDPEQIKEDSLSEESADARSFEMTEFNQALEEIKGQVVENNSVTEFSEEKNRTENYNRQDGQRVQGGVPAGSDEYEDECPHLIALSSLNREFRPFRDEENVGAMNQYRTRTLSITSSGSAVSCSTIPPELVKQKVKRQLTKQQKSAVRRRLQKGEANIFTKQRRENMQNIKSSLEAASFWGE
Sequence of PTK6 (Q13882 whole entry): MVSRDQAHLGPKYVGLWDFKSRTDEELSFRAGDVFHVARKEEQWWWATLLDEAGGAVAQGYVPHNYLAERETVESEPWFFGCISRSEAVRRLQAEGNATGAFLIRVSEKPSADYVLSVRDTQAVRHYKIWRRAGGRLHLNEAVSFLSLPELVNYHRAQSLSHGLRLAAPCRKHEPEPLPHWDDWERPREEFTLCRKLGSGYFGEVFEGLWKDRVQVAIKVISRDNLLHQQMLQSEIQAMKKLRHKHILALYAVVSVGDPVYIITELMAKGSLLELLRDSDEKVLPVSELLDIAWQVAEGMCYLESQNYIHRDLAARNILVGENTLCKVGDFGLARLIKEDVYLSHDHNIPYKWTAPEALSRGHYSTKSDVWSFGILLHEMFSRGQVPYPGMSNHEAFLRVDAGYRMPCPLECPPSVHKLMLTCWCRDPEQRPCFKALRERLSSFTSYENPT

inhibition at 1 µM (CDK16): 2%
inhibition at 1 µM (CDK5): 1%
inhibition at 1 µM (CLK4): -19%
inhibition at 1 µM (MAP3K12): 12%
inhibition at 1 µM (MAPK9): -11%
inhibition at 1 µM (MAST3): -1%
inhibition at 1 µM (MLTK): -3%
inhibition at 1 µM (MYLK3): -8%
inhibition at 1 µM (MYLK4): -8%
inhibition at 1 µM (NEK1): 3%
inhibition at 1 µM (PRKACA): -1%
inhibition at 1 µM (PTK6): -2%
inhibition at 1 µM (RIOK2): 9%
inhibition at 1 µM (SLK): 36%
inhibition at 1 µM (STK16): -13%
inhibition at 1 µM (STK36): -6%
inhibition at 1 µM (TEK): 37%
inhibition at 1 µM (TLK1): -5%
Structure (SMILES): C[C@@H](Oc1cc(-c2cnn(C3CCNCC3)c2)cnc1N)c1c(Cl)ccc(F)c1Cl [crizotinib]
